Assay results published in ChEMBL document CHEMBL1800003, “In vivo and in vitro SAR of tetracyclic MAPKAP-K2 (MK2) inhibitors. Part I” (Bioorg Med Chem Lett, 2010).

Legend:
[1] = biological target: T1, MAP kinase-activated protein kinase 2 (Homo sapiens, UniProt P49137); assay: Inhibition of human MK2 using hsp27 peptide biotinyl-AYSRALSRQLSSGVSEIRCOOH as substrate after 45 mins by FRET assay
PBMC = assay: Antiinflammatory activity against LPS-induced TNFalpha release in human PBMC preincubated for 30 mins measured after 3 hrs of LPS stimulation; assay type: functional, cell-based
[2] = biological target: T1, MAP kinase-activated protein kinase 2; assay: Inhibition of MK2 in human THP-1 cells assessed as inhibition of anisomycin stimulated ser78-hsp27 phosphorylation after 10 mins by FACS analysis; assay type: cell-based
[3] = biological target: Mitogen-activated protein kinase 9 (Homo sapiens, UniProt P45984); assay: Inhibition of JNK2
Mus musculus = assay: Antiinflammatory activity in OFI mouse assessed as inhibition of LPS-induced TNFalpha release at 100 mg/kg, po dosed 1 hr before LPS challenge and measured after 1 hr post LPS challenge by ELISA; assay type: functional
[4] = Drug level in LPS-stimulated OFI mouse plasma at 100 mg/kg, po after 2 hrs by LC-MS/MS analysis; assay type: ADME, organism-based; design: dose 100 mg/kg, route oral

Sequence of Mitogen-activated protein kinase 9 (P45984 whole entry): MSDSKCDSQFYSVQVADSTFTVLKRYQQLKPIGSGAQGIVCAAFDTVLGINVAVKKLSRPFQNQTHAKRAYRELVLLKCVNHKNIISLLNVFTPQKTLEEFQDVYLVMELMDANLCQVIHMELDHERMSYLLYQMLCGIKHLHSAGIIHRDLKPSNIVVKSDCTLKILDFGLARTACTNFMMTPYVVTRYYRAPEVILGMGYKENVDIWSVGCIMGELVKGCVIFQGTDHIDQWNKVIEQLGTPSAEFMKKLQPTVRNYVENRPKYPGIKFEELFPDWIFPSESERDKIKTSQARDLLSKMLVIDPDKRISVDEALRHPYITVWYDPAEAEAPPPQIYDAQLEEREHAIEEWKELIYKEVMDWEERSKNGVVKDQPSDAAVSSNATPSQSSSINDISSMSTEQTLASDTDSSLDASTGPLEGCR
T1 sequence (P49137 whole entry): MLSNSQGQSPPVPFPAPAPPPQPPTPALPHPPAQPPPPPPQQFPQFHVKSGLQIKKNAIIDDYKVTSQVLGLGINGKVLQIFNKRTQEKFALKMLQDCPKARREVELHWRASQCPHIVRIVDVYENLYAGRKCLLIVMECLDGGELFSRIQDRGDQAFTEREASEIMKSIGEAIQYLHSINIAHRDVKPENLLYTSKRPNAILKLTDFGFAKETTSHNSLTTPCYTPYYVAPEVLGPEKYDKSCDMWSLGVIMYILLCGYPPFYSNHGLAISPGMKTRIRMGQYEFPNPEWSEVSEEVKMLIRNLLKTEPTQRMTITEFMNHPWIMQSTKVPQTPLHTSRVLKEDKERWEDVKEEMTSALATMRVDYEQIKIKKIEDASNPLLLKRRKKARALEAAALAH

| Structure (SMILES) | IC50 [1] [nM] | IC50 (PBMC) [nM] | IC50 [2] [nM] | IC50 [3] [nM] | inhibition in vivo at 100 mg/kg (Mus musculus) [%] | concentration at 2 h [4] [µM] |
| --- | --- | --- | --- | --- | --- | --- |
| COCCOc1cncc(-c2cc3c(ccc4c5c([nH]c43)CCNC5=O)cn2)c1 | 12 | 260 | 700 | 649 | – | – |
| O=C1NCCCc2[nH]c3c(ccc4cnc(-c5ccccc5OCCN5CCOCC5)cc43)c21 | 167 | > 3000 | – | – | – | – |
| O=C1NCCCc2[nH]c3c(ccc4cnc(-c5cncc(OCCN6CCOCC6)c5)cc43)c21 | 80 | 8600 | > 30000 | 3170 | – | – |
| COCCOc1cncc(-c2cc3c(ccc4c5c([nH]c43)CCCNC5=O)cn2)c1 | 96 | 8380 | 8300 | 2700 | – | – |
| COc1ccc(-c2cc3c(ccc4c5c([nH]c43)CCCNC5=O)cn2)cc1 | 72 | 580 | – | – | – | – |
| NCc1[nH]c2c(ccc3cnc(/C=C/c4ccccc4)cc32)c1C(=O)O | 14 | 735 | – | – | – | – |
| CNCc1[nH]c2c(ccc3cnc(/C=C/c4ccccc4)cc32)c1C(=O)O | 60 | 1240 | – | – | – | – |
| O=C1NOCc2[nH]c3c(ccc4cnc(/C=C/c5ccccc5)cc43)c21 | 25 | 46 | – | – | – | – |
| COc1ccc(-c2cc3c(ccc4c5c([nH]c43)CN(C)NC5=O)cn2)cc1 | 23 | 2360 | 875 | 547 | – | – |
| O=C1NCc2[nH]c3c(ccc4cnc(/C=C/c5ccccc5)cc43)c21 | 10 | 14 | – | 2 | – | – |
| O=C1NCc2[nH]c3c(ccc4cnc(/C=C/c5ccc(CN6CCOCC6)cc5)cc43)c21 | 8 | 5 | – | 22 | – | – |
| O=C1NCc2[nH]c3c(ccc4cnc(/C=C/c5cccc(CCN6CCOCC6)c5)cc43)c21 | 10 | 14 | – | 34 | – | – |
| O=C1NCc2[nH]c3c(ccc4cnc(Nc5cccc(F)c5)cc43)c21 | 73 | 15 | – | 1 | – | – |
| COc1ccc(-c2cc3c(ccc4c5c([nH]c43)CNC5=O)cn2)cc1 | 27 | 198 | – | – | – | – |
| O=C1NCc2[nH]c3c(ccc4cnc(-c5ccccc5F)cc43)c21 | 85 | 912 | 5080 | 30 | – | – |
| O=C1NCc2[nH]c3c(ccc4cnc(-c5ccccc5C(F)(F)F)cc43)c21 | 900 | – | – | – | – | – |
| O=C1NCc2[nH]c3c(ccc4cnc(-c5cccc(OCCN6CCOCC6)c5)cc43)c21 | 32 | 280 | 1280 | 11 | – | – |
| O=C1NCc2[nH]c3c(ccc4cnc(-c5cncc(OCCN6CCOCC6)c5)cc43)c21 | 5 | 556 | 9330 | 75 | – | – |
| COCCOc1cncc(-c2cc3c(ccc4c5c([nH]c43)CNC5=O)cn2)c1 | 5 | 416 | 1680 | 38 | – | – |
| CN1Cc2[nH]c3c(ccc4cnc(/C=C/c5ccccc5)cc43)c2C1=O | 1190 | – | – | – | – | – |
| O=C1NCCc2[nH]c3c(ccc4cnc(/C=C/c5ccc(CN6CCOCC6)cc5)cc43)c21 | 1 | 9 | – | 198 | – | – |
| O=C1NCCc2[nH]c3c(ccc4cnc(/C=C/c5cccc(CCN6CCOCC6)c5)cc43)c21 | 5 | 32 | – | 76 | – | – |
| COc1ccc(-c2cc3c(ccc4c5c([nH]c43)CCNC5=O)cn2)cc1F | 15 | 97 | 500 | 1420 | – | – |
| O=C1NCCc2[nH]c3c(ccc4cnc(-c5cccc(OCCN6CCOCC6)c5)cc43)c21 | 16 | 294 | 1300 | 269 | – | – |
| O=C1NCCc2[nH]c3c(ccc4cnc(-c5cncc(OCCN6CCOCC6)c5)cc43)c21 | 10 | 283 | 2500 | 418 | – | – |
| COc1ccc(-c2cc3c(ccc4c5c([nH]c43)CCC5=O)cn2)cc1F | 160 | 1400 | 5800 | 2200 | 73 | 13 |
| O=C1NCCCc2[nH]c3c(ccc4cnc(/C=C/c5ccccc5)cc43)c21 | 116 | 202 | – | 85 | – | – |
| O=C1NCCCc2[nH]c3c(ccc4cnc(/C=C/c5ccc(CN6CCOCC6)cc5)cc43)c21 | 253 | 140 | – | 980 | – | – |
| O=C1NCCCc2[nH]c3c(ccc4cnc(/C=C/c5cccc(CCN6CCOCC6)c5)cc43)c21 | 172 | > 1000 | – | 700 | – | – |
